Measured values: US11999718B2, “Pyrazole derivatives” (Aptabio Therapeutics Inc., priority 2021, dated 2024)

These compounds were tested on HL-60 cells differentiated into neutrophil cells (assay: ROS production induced by PMA in HL-60 cells differentiated into neutrophil cells). Conditions: Homo sapiens, 0.5 h; differentiated HL-60 cells, compounds 0.5 uM (0.5 mM in the source) for 30 minutes, 200 nM PMA, L-012 luminescence.
Assay type: cell-based
Source text: In order to confirm the effect of the compounds of Synthetic examples on ROS production from fibroblasts and specific substrate cells, ROS production was induced by stimulation of PMA (phorbol 12-myristate 13-acetate), TGF-β1, palmitate or high concentration-glucose, or the like, in HL-60 cells differentiated into neutrophil cells by DMSO treatment, NHLF (normal human lung fibroblast, Lonza), LX-2 (human hepatic stellate cells, Sigma), ARPE19 (human retinal pigment epithelial cell, ATCC), and KEL-FIB (Keloid fibroblast, ATCC) cells, and under this condition, the inhibitory effect of ROS production of the compounds of Synthetic Examples was observed.
HL-60 cells (human leukemia cells, ATCC) were suspended in a medium containing 1.25% DMSO (RPMI+10% FBS) and cultured under the condition of 5% CO2, 37° C. for 6 days, thereby inducing differentiation into neutrophil cells. […] Then, to each well comprising the cells and drug, 200 nM PMA was treated to induce ROS production, and such ROS production was measured by observing the luminescence level of each well using 100 μM L-012.

Compound | inhibition at 0.5 µM
Oc1c2c(nn1-c1ccccn1)CCC(N(Cc1ccccc1)C1CC1)C2 (centres unmarked) [Compound 2, 5-(Benzylcyclopropylamino)-2-(pyridin-2-yl)-4,5,6,7-tetrahydro-2H-indazol-3-ol] | > 70%
CN(Cc1ccc(C#N)cc1)C1CCc2nn(-c3ccccn3)c(O)c2C1 (centres unmarked) [Compound 3, 4-{[(3-Hydroxy-2-(pyridin-2-yl)-4,5,6,7-tetrahydro-2H-indazol-5-yl)methylamino]methyl}benzonitrile] | > 70%
CN(Cc1ccc(F)cc1)C1CCc2nn(-c3ccccn3)c(O)c2C1 (centres unmarked) [Compound 4, 5-[(4-Fluorobenzyl)methylamino]-2-(pyridin-2-yl)-4,5,6,7-tetrahydro-2H-indazol-3-ol] | > 70%
CN(Cc1ccccc1Cl)C1CCc2nn(-c3ccccn3)c(O)c2C1 (centres unmarked) [Compound 6, 5-[(2-Chlorobenzyl)methylamino]-2-(pyridin-2-yl)-4,5,6,7-tetrahydro-2H-indazol-3-ol] | > 70%
CN(Cc1cccc(Cl)c1)C1CCc2nn(-c3ccccn3)c(O)c2C1 (centres unmarked) [Compound 7, 5-[(3-Chlorobenzyl)methylamino]-2-(pyridin-2-yl)-4,5,6,7-tetrahydro-2H-indazol-3-ol] | > 70%
CN(Cc1ccc(C(F)(F)F)cc1)C1CCc2nn(-c3ccccn3)c(O)c2C1 (centres unmarked) [Compound 8, 5-[Methyl-(4-trifluoromethylbenzyl)amino]-2-pyridin-2-yl-4,5,6,7-tetrahydro-2H-indazol-3-ol] | < 30%
Cc1cccc(CN(C)C2CCc3nn(-c4ccccn4)c(O)c3C2)c1 (centres unmarked) [Compound 9, 5-[Methyl-(3-methylbenzyl)amino]-2-(pyridin-2-yl)-4,5,6,7-tetrahydro-2H-indazol-3-ol] | 50 to 70%
CN(Cc1cccc(C(F)(F)F)c1)C1CCc2nn(-c3ccccn3)c(O)c2C1 (centres unmarked) [Compound 10, 5-[Methyl-(3-trifluoromethylbenzyl)-amino]-2-pyridin-2-yl-4,5,6,7-tetrahydro-2H-indazol-3-ol] | 30 to 50%
CN(Cc1ccccc1C(F)(F)F)C1CCc2nn(-c3ccccn3)c(O)c2C1 (centres unmarked) [Compound 11, 5-[Methyl-(2-trifluoromethylbenzyl)-amino]-2-pyridin-2-yl-4,5,6,7-tetrahydro-2H-indazol-3-ol] | < 30%
Oc1c2c(nn1-c1ccccn1)CCC(N1CCOCC1)C2 (centres unmarked) [Compound 15, 5-Morpholino-4-yl-2-(pyridin-2-yl)-4,5,6,7-tetrahydro-2H-indazol-3-ol] | > 70%
Oc1c2c(nn1-c1ccccn1)CCC(N1CCc3ccccc3C1)C2 (centres unmarked) [Compound 18, 5-(3,4-Dihydro-1H-isoquinolin-2-yl)-2-(pyridin-2-yl)-4,5,6,7-tetrahydro-2H-indazol-3-ol] | > 70%
CN(Cc1ccc(Cl)cc1)C1CCc2nn(-c3ccccn3)c(O)c2C1 (centres unmarked) [Compound 19, 5-[(4-Chlorobenzyl)methylamino]-2-(pyridin-2-yl)-4,5,6,7-tetrahydro-2H-indazol-3-ol] | > 70%
CCN(Cc1ccccc1)C1CCc2nn(-c3ccccn3)c(O)c2C1 (centres unmarked) [Compound 20, 5-(Benzylethylamino)-2-(pyridin-2-yl)-4,5,6,7-tetrahydro-2H-indazol-3-ol] | 30 to 50%
CCCN(Cc1ccccc1)C1CCc2nn(-c3ccccn3)c(O)c2C1 (centres unmarked) [Compound 21, 5-(Benzylpropylamino)-2-(pyridin-2-yl)-4,5,6,7-tetrahydro-2H-indazol-3-ol] | 30 to 50%
CCCCN(Cc1ccccc1)C1CCc2nn(-c3ccccn3)c(O)c2C1 (centres unmarked) [Compound 22, 5-(Benzylbutylamino)-2-(pyridin-2-yl)-4,5,6,7-tetrahydro-2H-indazol-3-ol] | < 30%
Cc1ccc(CN(C)C2CCc3nn(-c4ccccn4)c(O)c3C2)cc1 (centres unmarked) [Compound 24, 5-[Methyl-(4-methylbenzyl)amino]-2-(pyridin-2-yl)-4,5,6,7-tetrahydro-2H-indazol-3-ol] | 30 to 50%
CN(Cc1cccc(C#N)c1)C1CCc2nn(-c3ccccn3)c(O)c2C1 (centres unmarked) [Compound 25, 3-{[(3-Hydroxy-2-(pyridin-2-yl)-4,5,6,7-tetrahydro-2H-indazol-5-yl)methylamino]methyl}benzonitrile] | 30 to 50%
COc1ccccc1CN(C)C1CCc2nn(-c3ccccn3)c(O)c2C1 (centres unmarked) [Compound 26, 5-[(2-Methoxybenzyl)-methylamino]-2-(pyridin-2-yl)-4,5,6,7-tetrahydro-2H-indazol-3-ol] | < 30%
CN(Cc1cccc(F)c1)C1CCc2nn(-c3ccccn3)c(O)c2C1 (centres unmarked) [Compound 27, 5-[(3-Fluorobenzyl)methylamino]-2-(pyridin-2-yl)-4,5,6,7-tetrahydro-2H-indazol-3-ol] | 30 to 50%

Compound | inhibition at 0.5 µM
COc1ccc(CN(C)C2CCc3nn(-c4ccccn4)c(O)c3C2)cc1 (centres unmarked) [Compound 28, 5-[(4-Methoxybenzyl)methylamino]-2-(pyridin-2-yl)-4,5,6,7-tetrahydro-2H-indazol-3-ol] | 50 to 70%
Cc1ccccc1CN(C)C1CCc2nn(-c3ccccn3)c(O)c2C1 (centres unmarked) [Compound 29, 5-[Methyl-(2-methylbenzyl)amino]-2-(pyridin-2-yl)-4,5,6,7-tetrahydro-2H-indazol-3-ol] | 30 to 50%
CN1CCN(c2cc(CN(C)C3CCc4nn(-c5ccccn5)c(O)c4C3)ncn2)CC1 (centres unmarked) [Compound 34, 5-{methyl-[6-(4-methyl-piperazin-1-yl)-pyrimidin-4-ylmethyl]-amino}-2-pyridin-2-yl-4,5,6,7-tetrahydro-2H-indazol-3-ol] | 30 to 50%
CN1CCN(c2cccc3nc(CN(C)C4CCc5nn(-c6ccccn6)c(O)c5C4)cn23)CC1 (centres unmarked) [Compound 37, 5-{Methyl[5-(4-methylpiperazin-1-yl)imidazo[1,2-a]pyridin-2-yl]methylamino}-2-(pyridin-2-yl)-4,5,6,7-tetrahydro-2H-indazol-3-ol] | 30 to 50%
CN(C)c1ccc(CN(C)C2CCc3nn(-c4ccccn4)c(O)c3C2)cc1 (centres unmarked) [Compound 70, 5-[(4-Dimethylamino)benzylmethylamino]-2-(pyridin-2-yl)-4,5,6,7-tetrahydro-2H-indazol-3-ol] | 30 to 50%
CN(C)c1ccccc1CN(C)C1CCc2nn(-c3ccccn3)c(O)c2C1 (centres unmarked) [Compound 71, 5-[(2-Dimethylamino)benzylmethylamino]-2-(pyridin-2-yl)-4,5,6,7-tetrahydro-2H-indazol-3-ol] | 50 to 70%
CN1CCN(C2CCc3nn(-c4cccc(Cl)n4)c(O)c3C2)CC1 (centres unmarked) [Compound 83, 2-(6-Chloropyridin-2-yl)-5-(4-methylpiperazin-1-yl)-4,5,6,7-tetrahydro-2H-indazol-3-ol] | > 70%
Cc1cc(C(F)(F)F)cc(-n2nc3c(c2O)CC(N2CCN(C)CC2)CC3)n1 (centres unmarked) [Compound 84, 2-(6-Methyl-4-(trifluoromethyl)pyridin-2-yl)-5-(4-methylpiperazin-1-yl)-4,5,6,7-tetrahydro-2H-indazol-3-ol] | 50 to 70%
CN1CCN(C2CCc3nn(-c4nccc5sccc45)c(O)c3C2)CC1 (centres unmarked) [Compound 85, 5-(4-Methylpiperazin-1-yl)-2-(thieno[3,2-c]pyridin-4-yl)-4,5,6,7-tetrahydro-2H-indazol-3-ol] | 50 to 70%
CN1CCN(C2CCc3nn(-c4ncccc4F)c(O)c3C2)CC1 (centres unmarked) [Compound 86, 2-(3-Fluoropyridin-2-yl)-5-(4-methylpiperazin-1-yl)-4,5,6,7-tetrahydro-2H-indazol-3-ol] | 30 to 50%
Oc1c2c(nn1-c1ccccn1)CCC(N1CCN(Cc3ccccn3)CC1)C2 (centres unmarked) [Compound 87, 2-(Pyridin-2-yl)-5-(4-(pyridin-2-ylmethyl)piperazin-1-yl)-4,5,6,7-tetrahydro-2H-indazol-3-ol] | 50 to 70%
COc1ccc(CNC2CCc3nn(-c4ccccn4)c(O)c3C2)cc1 (centres unmarked) [Compound 88, 5-((4-Methoxybenzyl)amino)-2-(pyridin-2-yl)-4,5,6,7-tetrahydro-2H-indazol-3-ol] | 50 to 70%
CC#CC(=O)N1CCN(C2CCc3nn(-c4ccccn4)c(O)c3C2)CC1 (centres unmarked) [Compound 89] | > 70%
Oc1c2c(nn1-c1ccccn1)CCC(N1CCN(Cc3ccc4ncccc4c3)CC1)C2 (centres unmarked) [Compound 90, 2-(Pyridin-2-yl)-5-(4-(quinolin-6-ylmethyl)piperazin-1-yl)-4,5,6,7-tetrahydro-2H-indazol-3-ol] | > 70%
CCN1CCN(C2CCc3nn(-c4ccccn4)c(O)c3C2)CC1 (centres unmarked) [Compound 91, 5-(4-Ethylpiperazin-1-yl)-2-(pyridin-2-yl)-4,5,6,7-tetrahydro-2H-indazol-3-ol] | 50 to 70%
Oc1c2c(nn1-c1ccccn1)CCC(Nc1ccccc1)C2 (centres unmarked) [Compound 92, 5-(Phenylamino)-2-(pyridin-2-yl)-4,5,6,7-tetrahydro-2H-indazol-3-ol] | 30 to 50%
Oc1c2c(nn1-c1ccccn1)CCC(NCCc1ccccc1)C2 (centres unmarked) [Compound 93, 5-(Penethylamino)-2-(pyridin-2-yl)-4,5,6,7-tetrahydro-2H-indazol-3-ol] | 30 to 50%
CN1CCN(C2CCc3nn(-c4ccc(Cl)cc4)c(O)c3C2)CC1 (centres unmarked) [Compound 94, 2-(4-Chlorophenyl)-5-(4-methylpiperazin-1-yl)-4,5,6,7-tetrahydro-2H-indazol-3-ol] | > 70%
CN1CCN(C2CCc3nn(-c4ccc(C(F)(F)F)cc4)c(O)c3C2)CC1 (centres unmarked) [Compound 95, 5-(4-Methylpiperazin-1-yl)-2-(4-(trifluoromethyl)phenyl)-4,5,6,7-tetrahydro-2H-indazol-3-ol] | 50 to 70%
